Here are results for four molecules from article PMC3850815, “Molecular details of ligand selectivity determinants in a promiscuous β-glucan periplasmic binding protein” (BMC Structural Biology, 2013).

For data set [1], the target named is T1, tmCBP (Thermotoga maritima cellobiose-binding protein) (Thermotoga maritima, UniProt Q9WXN8).
T1 construct: gene TM_0031; recombinant, E. coli BL21-RIL, nickel chelation purification (tagged); 582 residues modelled; ligand-free protein from Enfor's minimal medium
As to the kind of experiment: CD thermal denaturation at […] nm. To be noted: Tm without ligand 94.8 °C; 1 mM ligand, 0.5 μM protein, 2 M guanidine hydrochloride, 10 mM Tris-HCl pH 8.0, 40 mM NaCl.

The target in data set [2] is T1, tmCBP (Thermotoga maritima cellobiose-binding protein). Kind of data set: small-angle neutron scattering, ligand-induced closure. To be noted: 5 mM ligand, 20 mM Tris pH 8.0, 40 mM NaCl, D2O, 20 °C.
Data set [3] concerns the molecule itself. Kind of data set: small-angle neutron scattering (SANS); tmCBP at 4.2-16.7 mg/mL in 20 mM Tris pH 8.0, 40 mM NaCl, 100% D2O, 20°C; molecular mass from the intensity at zero scattering angle; apo protein, and with 5 mM cellobiose added (associations then alleviated).

For orientation: Tm means the temperature at which the thermal transition is half complete. For `OC[C@H]1O[C@@H](O[C@H]2[C@H](O)[C@@H](CO)OC(O)[C@@H]2O)[C@H](O)[C@@H](O)[C@@H]1O` (stereo partly shown) [LR2, laminaribiose], the Tm in data set [1] is 99.2 °C. Regarding `OC[C@H]1O[C@@H](O[C@H]2[C@H](O)[C@@H](O)C(O)O[C@@H]2CO)[C@H](O)[C@@H](O)[C@@H]1O` (stereo partly shown) [cellobiose], the “small-angle neutron scattering, ligand-induced closure” value in data set [2] is “Upon addition of ligand the protein undergoes large scale conformational changes”. In the case of `OC[C@H]1O[C@@H](O[C@@H]2[C@@H](O)[C@H](O[C@@H]3[C@@H](O)[C@H](O[C@@H]4[C@@H](O)[C@H](O[C@H]5[C@H](O)[C@@H](CO)OC(O)[C@@H]5O)O[C@H](CO)[C@H]4O)O[C@H](CO)[C@H]3O)O[C@H](CO)[C@H]2O)[C@H](O)[C@@H](O)[C@@H]1O` (stereo partly shown) [LR5, laminaripentaose], the Tm in data set [1] was determined as 105.2 °C.

B1: Thermotoga maritima cellobiose binding protein (natural protein)
chain: QVSLPREDTVYIGGALWGPATTWNLYAPQSTWGTDQFMYLPAFQYDLGRDAWIPVIAERYEFVDDKTLRIYIRPEARWSDGVPITADDFVYALELTKELGIGPGGGWDTYIEYVKAVDTKVVEFKAKEENLNYFQFLSYSLGAQPMPKHVYERIRAQMNIKDWINDKPEEQVVSGPYKLYYYDPNIVVYQRVDDWWGKDIFGLPRPKYLAHVIYKDNPSASLAFERGDIDWNGLFIPSVWELWEKKGLPVGTWYKKEPYFIPDGVGFVYVNNTKPGLSDPAVRKAIAYAIPYNEMLKKAYFGYGSQAHPSMVIDLFEPYKQYIDYELAKKTFGTEDGRIPFDLDMANKILDEAGYKKGPDGVRVGPDGTKLGPYTISVPYGWTDWMMMCEMIAKNLRSIGIDVKTEFPDFSVWADRMTKGTFDLIISWSVGPSFDHPFNIYRFVLDKRLSKPVGEVTWAGDWERYDNDEVVELLDKAVSTLDPEVRKQAYFRIQQIIYRDMPSIPAFYTAHWYEYSTKYWINWPSEDNPAWFRPSPWHADAWPTLFIISKKSDPQPVPSWLGTVDEGGIEIPTAKIFEDLQKATM
notes: final crystal models hold 582 amino acids; expected mass 68.7 kDa; the apo (ligand-free) form was used for the SANS measurement of self-association; also called tmCBP
In the case of B1, in data set [3], the binding result is on record as “binds”.
